Test results from PubChem BioAssay AID248 (DTP/NCI, 2004).
Several values for one entry are separate records, joined by “and”; a condition that tells them apart may be missing. Identical values can stand only once. Inconclusive results and toxic doses are left out. Rule as the data show it: active = T/C of 150% or more; inactive = T/C below 125%.

Tested on: L1210 leukemia ip in BDF1 mice, survival T/C
Assay: NCI In Vivo Anticancer Drug Screen. Data for tumor model L1210 Leukemia (intraperitoneal) in B6D2F1 (BDF1) mice
Settings: endpoint: mean survival time, higher = longer survival
Summary of the method: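 Read-out is survival time, reported as the treated-group measurement over the vehicle-control measurement.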

[1] = dose: 100.0 mg/kg/injection, schedule: Q01DX001 (ip), vehicle: saline
[2] = dose: 100.0 mg/kg/injection, schedule: Q04DX003 (ip), vehicle: Klucel (hydroxypropylcellulose) (HPC)
[3] = dose: 200.0 mg/kg/injection, schedule: Q04DX003 (ip), vehicle: Klucel (hydroxypropylcellulose) (HPC)
[4] = dose: 400.0 mg/kg/injection, schedule: Q04DX003 (ip), vehicle: Klucel (hydroxypropylcellulose) (HPC)
[5] = dose: 100.0 mg/kg/injection, schedule: Q01DX001 (ip), vehicle: carboxymethylcellulose (CMC)
[6] = dose: 100.0 mg/kg/injection, schedule: Q01DX009 (ip), vehicle: Klucel (hydroxypropylcellulose) (HPC)
[7] = dose: 200.0 mg/kg/injection, schedule: Q01DX001 (ip), vehicle: carboxymethylcellulose (CMC)
[8] = dose: 200.0 mg/kg/injection, schedule: Q01DX009 (ip), vehicle: Klucel (hydroxypropylcellulose) (HPC)
[9] = dose: 400.0 mg/kg/injection, schedule: Q01DX001 (ip), vehicle: carboxymethylcellulose (CMC)
[10] = dose: 100.0 mg/kg/injection, schedule: Q01DX009 (ip), vehicle: saline with Tween-80
[11] = dose: 200.0 mg/kg/injection, schedule: Q01DX009 (ip), vehicle: saline with Tween-80
[12] = dose: 400.0 mg/kg/injection, schedule: Q01DX009 (ip), vehicle: saline with Tween-80
[13] = dose: 200.0 mg/kg/injection, schedule: Q01DX001 (ip), vehicle: saline
[14] = dose: 400.0 mg/kg/injection, schedule: Q01DX001 (ip), vehicle: saline

Measured: T/C

CNC(=Nc1ccc(NC(=O)c2ccc(C(=O)Nc3ccc(N=C(NC)c4ccccc4)cc3)cc2)cc1)c1ccccc1
inactive: dose: 3.75 mg/kg/injection, schedule: Q01DX Z (ip), vehicle: saline 106 % of control | dose: 7.5 mg/kg/injection, schedule: Q01DX Z (ip), vehicle: saline 100 % of control | dose: 15.0 mg/kg/injection, schedule: Q01DX Z (ip), vehicle: other 91 % of control | dose: 15.0 mg/kg/injection, schedule: Q01DX Z (ip), vehicle: saline 105 % of control

CC(C)(C)C1CCC(=N[N+](C)(C)C)CC1 (stereo not drawn)
inactive: [1] 104 % of control

Cc1cc2c([N+](=O)[O-])c3ccc(N4CCCCC4)nn3c2n[n+]1[O-]
inactive: dose: 31.3 mg/kg/injection, schedule: Q04DX002 (ip), vehicle: Klucel (hydroxypropylcellulose) (HPC) 95 % of control | dose: 62.5 mg/kg/injection, schedule: Q04DX002 (ip), vehicle: Klucel (hydroxypropylcellulose) (HPC) 111 % of control | dose: 125.0 mg/kg/injection, schedule: Q04DX002 (ip), vehicle: Klucel (hydroxypropylcellulose) (HPC) 122 % of control

CCOC(=O)CCc1c(C(=O)OCC)[nH]c(C)c1CC(=O)OC
inactive: [2] 98 % of control | [3] 101 % of control | [4] 101 % of control

COc1cc(OC)c(OC)cc1/C=C\c1ccnc2ccccc12
inactive: [5] 105 % of control | [6] 98 % of control | [7] 100 % of control | [8] 108 % of control | [3] 108 % of control | [9] 109 % of control | dose: 400.0 mg/kg/injection, schedule: Q01DX009 (ip), vehicle: Klucel (hydroxypropylcellulose) (HPC) 114 % of control | [4] 108 % of control | dose: 800.0 mg/kg/injection, schedule: Q01DX009 (ip), vehicle: Klucel (hydroxypropylcellulose) (HPC) 112 % of control | dose: 800.0 mg/kg/injection, schedule: Q04DX003 (ip), vehicle: Klucel (hydroxypropylcellulose) (HPC) 110 % of control | dose: 1600.0 mg/kg/injection, schedule: Q04DX003 (ip), vehicle: Klucel (hydroxypropylcellulose) (HPC) 108 % of control

CCn1c2ccccc2c2cc(N=C3C(=O)N(C)c4ccccc43)ccc21
inactive: [5] 95 % of control | [7] 95 % of control | [9] 95 % of control

CCOC(=O)c1ccc(S(=O)(=O)N(CC)CC)cc1
inactive: dose: 50.0 mg/kg/injection, schedule: Q01DX001 (ip), vehicle: carboxymethylcellulose (CMC) 89 % of control | [5] 96 % of control | [7] 91 % of control | [9] 102 % of control

CN=C1c2ccccc2C2(c3ccccc3)C1N2C (stereo not drawn)
inactive: [10] 95 % of control | dose: 100.0 mg/kg/injection, schedule: Q04DX003 (ip), vehicle: saline sonified 121 % of control | [11] 94 % of control | dose: 200.0 mg/kg/injection, schedule: Q04DX003 (ip), vehicle: saline sonified 108 % of control | dose: 400.0 mg/kg/injection, schedule: Q04DX003 (ip), vehicle: saline sonified 101 % of control

C1CSCSC1
inactive: dose: 12.5 mg/kg/injection, schedule: Q01DX009 (ip), vehicle: Klucel (hydroxypropylcellulose) (HPC) 100 % of control | dose: 12.5 mg/kg/injection, schedule: Q04DX003 (ip), vehicle: Klucel (hydroxypropylcellulose) (HPC) 101 % of control | dose: 25.0 mg/kg/injection, schedule: Q01DX009 (ip), vehicle: Klucel (hydroxypropylcellulose) (HPC) 95 % of control | dose: 25.0 mg/kg/injection, schedule: Q04DX003 (ip), vehicle: Klucel (hydroxypropylcellulose) (HPC) 97 % of control | dose: 50.0 mg/kg/injection, schedule: Q04DX003 (ip), vehicle: Klucel (hydroxypropylcellulose) (HPC) 100 % of control

CCC#CC(=O)CC
inactive: dose: 7.5 mg/kg/injection, schedule: Q04DX003 (ip), vehicle: saline 94 % of control | dose: 15.0 mg/kg/injection, schedule: Q04DX003 (ip), vehicle: saline 94 % of control | dose: 30.0 mg/kg/injection, schedule: Q04DX003 (ip), vehicle: saline 95 % of control

Cc1cc2oc(=O)c(Cl)c(NCCO)c2c(C)c1Cl
inactive: [10] 104 % of control | [11] 96 % of control | [12] 95 % of control

C#CCCCCC#C
inactive: dose: 50.0 mg/kg/injection, schedule: Q01DX009 (ip), vehicle: Klucel (hydroxypropylcellulose) (HPC) 98 % of control | [6] 106 % of control | [2] 98 % of control | [8] 97 % of control | [3] 91 % of control | [4] 86 % of control

OC(Cc1cnc2ccccc2n1)C(Cl)(Cl)Cl (stereo not drawn)
inactive: [10] 102 % of control | [2] 90 % of control | [11] 97 % of control | [3] 95 % of control | [12] 94 % of control | [4] 108 % of control

CNc1nc(=O)n(C2CCCO2)cc1C (stereo not drawn)
inactive: [1] 90 % of control | [13] 98 % of control | [14] 95 % of control

Oc1ccccc1C=NCCN=Cc1ccccc1O
inactive: [10] 90 % of control | [11] 92 % of control | [12] 92 % of control

O=C(O)c1ccccc1S(=O)(=O)c1ccccc1
inactive: [10] 109 % of control | [11] 101 % of control | [12] 103 % of control

O=C(O)C1CCCN1 (stereo not drawn)
inactive: [1] 100 % of control | [13] 87 % of control | [14] 97 % of control

CC(=O)Oc1ccc([N+](=O)[O-])cc1
inactive: dose: 25.0 mg/kg/injection, schedule: Q04DX002 (ip), vehicle: Klucel (hydroxypropylcellulose) (HPC) 102 % of control | dose: 50.0 mg/kg/injection, schedule: Q04DX002 (ip), vehicle: Klucel (hydroxypropylcellulose) (HPC) 89 % of control | dose: 100.0 mg/kg/injection, schedule: Q04DX002 (ip), vehicle: Klucel (hydroxypropylcellulose) (HPC) 90 % of control | dose: 200.0 mg/kg/injection, schedule: Q04DX002 (ip), vehicle: Klucel (hydroxypropylcellulose) (HPC) 92 % of control and 96 % of control

[O-][n+]1c(CCl)nc2cccc3c2c1-c1ccccc1-3
inactive: dose: 25.0 mg/kg/injection, schedule: Q01DX009 (ip), vehicle: saline with Tween-80 108 % of control | dose: 50.0 mg/kg/injection, schedule: Q01DX009 (ip), vehicle: saline with Tween-80 110 % of control | dose: 50.0 mg/kg/injection, schedule: Q04DX003 (ip), vehicle: saline with Tween-80 102 % of control | [10] 104 % of control | dose: 100.0 mg/kg/injection, schedule: Q04DX003 (ip), vehicle: saline with Tween-80 107 % of control

O=c1[nH]c(Cc2ccccc2)c(Br)c(=O)[nH]1
inactive: dose: 50.0 mg/kg/injection, schedule: Q01DX001 (ip), vehicle: saline 102 % of control | [1] 100 % of control | [10] 104 % of control | dose: 100.0 mg/kg/injection, schedule: Q## X009 (ip), vehicle: saline with Tween-80 104 % of control | [13] 100 % of control | [11] 92 % of control | dose: 200.0 mg/kg/injection, schedule: Q## X009 (ip), vehicle: saline with Tween-80 92 % of control | [14] 94 % of control

CC/C(=C/c1ccccc1)C(N)=O
inactive: dose: 100.0 mg/kg/injection, schedule: Q01DX001 (ip), vehicle: steriod suspending solution 87 % of control | dose: 200.0 mg/kg/injection, schedule: Q01DX001 (ip), vehicle: steriod suspending solution 103 % of control

Cc1c(C)c2nc3ccccc3nc2c2ccccc12
inactive: dose: 50.0 mg/kg/injection, schedule: Q01DX001 (ip), vehicle: Klucel (hydroxypropylcellulose) (HPC) 98 % of control | dose: 100.0 mg/kg/injection, schedule: Q01DX001 (ip), vehicle: Klucel (hydroxypropylcellulose) (HPC) 95 % of control | dose: 200.0 mg/kg/injection, schedule: Q01DX001 (ip), vehicle: Klucel (hydroxypropylcellulose) (HPC) 95 % of control

CC(=O)OCC1OC(n2ccc(=O)[nH]c2=O)C(OC(C)=O)C1OC(C)=O (stereo not drawn)
inactive: [1] 100 % of control | [13] 103 % of control | [14] 106 % of control

O=S(=O)(CC(Cl)c1ccccc1)c1ccc(F)cc1 (stereo not drawn)
inactive: [1] 109 % of control | dose: 100.0 mg/kg/injection, schedule: Q01DX009 (ip), vehicle: saline 91 % of control | dose: 100.0 mg/kg/injection, schedule: Q04DX003 (ip), vehicle: saline 91 % of control | [13] 100 % of control | dose: 200.0 mg/kg/injection, schedule: Q01DX009 (ip), vehicle: saline 110 % of control | dose: 200.0 mg/kg/injection, schedule: Q04DX003 (ip), vehicle: saline 97 % of control | [14] 97 % of control | dose: 400.0 mg/kg/injection, schedule: Q01DX009 (ip), vehicle: saline 99 % of control | dose: 400.0 mg/kg/injection, schedule: Q04DX003 (ip), vehicle: saline 98 % of control
